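In this assay, cells in 96-well plates receive the compound at five concentrations for 48 hours. Endpoints are linearly interpolated between the surrounding concentrations. GI50 is the concentration that inhibits growth by half. TGI marks complete inhibition of growth.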
Columns and labels:
Test in all cases: inhibition of tumour cell growth, NCI panel, 48 h; in the data active = GI50 below about 0.43 µM; inactive = the rest
786-0 renal = test system: 786-0 renal
A498 renal = test system: A498 renal
A549 NSCLC = test system: A549 NSCLC
ACHN renal = test system: ACHN renal
CAKI-1 renal = test system: CAKI-1 renal
CCRF-CEM leukemia = test system: CCRF-CEM leukemia
EKVX NSCLC = test system: EKVX NSCLC
HCC-2998 colon = test system: HCC-2998 colon
HCT-15 colon = test system: HCT-15 colon
HL-60(TB) leukemia = test system: HL-60(TB) leukemia
HOP-62 NSCLC = test system: HOP-62 NSCLC
HOP-92 NSCLC = test system: HOP-92 NSCLC
HS 578T breast = test system: HS 578T breast
HT29 colon = test system: HT29 colon
IGROV1 ovarian = test system: IGROV1 ovarian
K-562 leukemia = test system: K-562 leukemia
M14 melanoma = test system: M14 melanoma
MALME-3M melanoma = test system: MALME-3M melanoma
MCF7 breast = test system: MCF7 breast
MDA-MB-231 breast = test system: MDA-MB-231 breast
MDA-MB-435 = test system: MDA-MB-435
MOLT-4 leukemia = test system: MOLT-4 leukemia
NCI-H226 lung = test system: NCI-H226 lung
NCI-H23 lung = test system: NCI-H23 lung
NCI-H460 lung = test system: NCI-H460 lung
NCI-H522 lung = test system: NCI-H522 lung
NCI/ADR-RES ovarian = test system: NCI/ADR-RES ovarian
OVCAR-4 ovarian = test system: OVCAR-4 ovarian
OVCAR-5 ovarian = test system: OVCAR-5 ovarian
OVCAR-8 ovarian = test system: OVCAR-8 ovarian
PC-3 prostate = test system: PC-3 prostate
RXF 393 renal = test system: RXF 393 renal
SF-268 CNS = test system: SF-268 CNS
SF-295 CNS = test system: SF-295 CNS
SK-MEL-2 melanoma = test system: SK-MEL-2 melanoma
SK-MEL-28 melanoma = test system: SK-MEL-28 melanoma
SK-MEL-5 melanoma = test system: SK-MEL-5 melanoma
SK-OV-3 ovarian = test system: SK-OV-3 ovarian
SN12C renal = test system: SN12C renal
SNB-19 CNS = test system: SNB-19 CNS
SR leukemia = test system: SR leukemia
T-47D breast = test system: T-47D breast
TK-10 renal = test system: TK-10 renal
U251 CNS = test system: U251 CNS
UACC-257 melanoma = test system: UACC-257 melanoma
UACC-62 melanoma = test system: UACC-62 melanoma
UO-31 renal = test system: UO-31 renal
COLO 205 colon = test system: COLO 205 colon
DU-145 prostate = test system: DU-145 prostate
KM12 colon = test system: KM12 colon
LOX IMVI melanoma = test system: LOX IMVI melanoma
RPMI-8226 leukemia = test system: RPMI-8226 leukemia
SNB-75 CNS = test system: SNB-75 CNS
SW-620 colon = test system: SW-620 colon

CC1(C)CC[C@]2(C(=O)Nc3ccccn3)CC[C@]3(C)C(=CC[C@@H]4[C@@]5(C)C/C(=C/c6ccncc6)C(=O)C(C)(C)[C@@H]5CC[C@]43C)[C@@H]2C1
6.63 µM: TGI (HCT-15 colon)
67.3 µM: TGI (IGROV1 ovarian)
19.5 µM: TGI (MDA-MB-231 breast)
6.59 µM: TGI (SK-MEL-28 melanoma)
8.89 µM: TGI (UACC-62 melanoma)
6.15 µM: TGI (MALME-3M melanoma)
2.74 µM: TGI (UO-31 renal)
27.7 µM: TGI (NCI-H522 lung)
> 100 µM: TGI (786-0 renal) | TGI (A549 NSCLC) | TGI (CAKI-1 renal) | TGI (CCRF-CEM leukemia) | TGI (EKVX NSCLC) | TGI (HOP-62 NSCLC) | TGI (HS 578T breast) | TGI (HT29 colon) | TGI (K-562 leukemia) | TGI (M14 melanoma) | TGI (MDA-MB-435) | TGI (MOLT-4 leukemia) | TGI (NCI-H23 lung) | TGI (NCI/ADR-RES ovarian) | TGI (OVCAR-4 ovarian) | TGI (OVCAR-5 ovarian) | TGI (OVCAR-8 ovarian) | TGI (PC-3 prostate) | TGI (SF-268 CNS) | TGI (SK-MEL-2 melanoma) | TGI (SK-OV-3 ovarian) | TGI (SN12C renal) | TGI (SNB-19 CNS) | TGI (SR leukemia) | TGI (T-47D breast) | TGI (TK-10 renal) | TGI (UACC-257 melanoma)
7 µM: TGI (HOP-92 NSCLC)
5.98 µM: TGI (ACHN renal)
5.18 µM: TGI (A498 renal)
3.9 µM: TGI (NCI-H460 lung)
6.04 µM: TGI (NCI-H226 lung)
4.82 µM: TGI (HCC-2998 colon)
inactive: GI50 (786-0 renal) 2.88 µM | GI50 (A498 renal) 2.05 µM | GI50 (A549 NSCLC) 2 µM | GI50 (ACHN renal) 2.08 µM | GI50 (CAKI-1 renal) 2.69 µM | GI50 (CCRF-CEM leukemia) 2.3 µM | GI50 (EKVX NSCLC) 3.8 µM | GI50 (HCC-2998 colon) 1.81 µM | GI50 (HCT-15 colon) 1.85 µM | GI50 (HL-60(TB) leukemia) 1.24 µM | GI50 (HOP-62 NSCLC) 4.41 µM | GI50 (HOP-92 NSCLC) 1.24 µM | GI50 (HS 578T breast) 2.96 µM | GI50 (HT29 colon) 2.17 µM | GI50 (IGROV1 ovarian) 3.12 µM | GI50 (K-562 leukemia) 1.78 µM | GI50 (M14 melanoma) 2.85 µM | GI50 (MALME-3M melanoma) 2.25 µM | GI50 (MCF7 breast) 0.938 µM | GI50 (MDA-MB-231 breast) 2.92 µM | GI50 (MDA-MB-435) 2.58 µM | GI50 (MOLT-4 leukemia) 2.27 µM | GI50 (NCI-H226 lung) 1.97 µM | GI50 (NCI-H23 lung) 3.18 µM | GI50 (NCI-H460 lung) 1.51 µM | GI50 (NCI-H522 lung) 2.09 µM | GI50 (NCI/ADR-RES ovarian) 4.48 µM | GI50 (OVCAR-4 ovarian) 2.9 µM | GI50 (OVCAR-5 ovarian) 4.14 µM | GI50 (OVCAR-8 ovarian) 3.76 µM | GI50 (PC-3 prostate) 0.624 µM | GI50 (RXF 393 renal) 1.67 µM | GI50 (SF-268 CNS) 9.45 µM | GI50 (SF-295 CNS) 2.37 µM | GI50 (SK-MEL-2 melanoma) 3.63 µM | GI50 (SK-MEL-28 melanoma) 2.28 µM | GI50 (SK-MEL-5 melanoma) 1.59 µM | GI50 (SK-OV-3 ovarian) > 100 µM | GI50 (SN12C renal) 2.57 µM | GI50 (SNB-19 CNS) 5.82 µM | GI50 (SR leukemia) 0.702 µM | GI50 (T-47D breast) 1.68 µM | GI50 (TK-10 renal) 5.75 µM | GI50 (U251 CNS) 1.82 µM | GI50 (UACC-257 melanoma) 2.2 µM | GI50 (UACC-62 melanoma) 1.85 µM | GI50 (UO-31 renal) 1.38 µM
5.68 µM: TGI (HL-60(TB) leukemia)
15.3 µM: TGI (MCF7 breast)
29.3 µM: TGI (SF-295 CNS)
3.37 µM: TGI (RXF 393 renal)
4.32 µM: TGI (U251 CNS)
3.1 µM: TGI (SK-MEL-5 melanoma)

CCC(=O)OC1=C(c2ccccc2)Sc2ccc(Cl)cc2-n2cccc21
> 10 µM: TGI (786-0 renal) | TGI (A549 NSCLC) | TGI (CAKI-1 renal) | TGI (CCRF-CEM leukemia) | TGI (COLO 205 colon) | TGI (DU-145 prostate) | TGI (EKVX NSCLC) | TGI (HCC-2998 colon) | TGI (HCT-15 colon) | TGI (HL-60(TB) leukemia) | TGI (HOP-62 NSCLC) | TGI (HOP-92 NSCLC) | TGI (HT29 colon) | TGI (IGROV1 ovarian) | TGI (K-562 leukemia) | TGI (KM12 colon) | TGI (LOX IMVI melanoma) | TGI (M14 melanoma) | TGI (MALME-3M melanoma) | TGI (MCF7 breast) | TGI (MDA-MB-231 breast) | TGI (MOLT-4 leukemia) | TGI (NCI-H23 lung) | TGI (OVCAR-4 ovarian) | TGI (OVCAR-8 ovarian) | TGI (PC-3 prostate) | TGI (RPMI-8226 leukemia) | TGI (RXF 393 renal) | TGI (SF-268 CNS) | TGI (SF-295 CNS) | TGI (SK-MEL-28 melanoma) | TGI (SK-MEL-5 melanoma) | TGI (SK-OV-3 ovarian) | TGI (SN12C renal) | TGI (SNB-75 CNS) | TGI (SR leukemia) | TGI (SW-620 colon) | TGI (T-47D breast) | TGI (TK-10 renal) | TGI (UACC-257 melanoma) | TGI (UACC-62 melanoma)
5.28 µM: TGI (MDA-MB-435)

— PubChem BioAssay (NCI)
